The record followed here is patent EP2197879B1, “C7-SUBSTITUTED CAMPTOTHECIN ANALOGS” (priority 2007, dated 2009).

Experiment [1] relates to A2780/WT (wild-type) cells. As to the kind of experiment: Sulforhodamine B (SRB) cytotoxicity assay in A2780/WT cells. It is filed as cell-based. The protocol: (§1) Each of the testing conditions used in this study in both A2780/WT (wild-type) and A2780/DX5 cells were repeated in five to fifteen experiments that were performed on separate days. Each experiment consisted of one microtiter plate with at least eight individual assays of a given drug treatment condition on the plate. The sulforhodamine B (SRB) assay was used to assess cytotoxicity and absorbance at 570 nm (A570) in order to calculate the percentage of cell control (or percent cell survival) for the various treatment conditions in the plate wells.
(§2) Roswell Park Memorial Institute (RPMI 1640) medium, fetal bovine serum (FBS), and L-glutamine were purchased from Gibco BRL. Drugs were dissolved in sterile dimethylsulfoxide (DMSO), from American Type Culture Collection (ATCC) for stock solutions (2.5 to 5.0 mM). Subsequent dilutions were made using cell culture medium (prior to adding the drug to cells). SRB was purchased from Sigma and dissolved in 1.0 percent acetic acid. Trichloroacetic acid was purchased from VWR International.
(§3) Cells were manipulated in a Class IIA/B3 Biological Safety Cabinet (Forma Scientific) and maintained at 37°C in a humidified atmosphere containing 5% CO2 in a water-jacketed cell culture incubator (Forma Scientific). Cells were counted using a Coulter-Z1 counter (Beckman-Coulter). Following drug treatment, plates were washed using a Biomek 2000 station (Beckman) and, following exposure to SRB dye, plates were washed using an automated plate washer (Model EL404, Bio-Tek Instruments). Percentage of control was correlated to A570 values and determined using a Model EL800 plate reader (Bio-Tek Instruments).
(§4) Population doubling times for the two cell lines used in this study encompassed a total of five cell doublings corresponding to approximately 5 days for A2780/WT and A2780/DX5 cells. A2780/WT and A2780/DX5 cells were cultured in RPMI 1640 medium supplemented with 10% fetal bovine serum and 1 mM of L-glutamine. Both cell lines were maintained as monolayered cultures in T-25 or T-75 flasks and then seeded to microtiter plate wells for experiments described herein. Prior to SRB assays, cell viability was monitored by evaluation of microtiter plate wells. Dead cells detach and float while living cells remain attached to the bottom of the cell well.
(§5) The sulforhodamine B (SRB) cytotoxicity assay (see, Skehan P, et al., New colorimetric cytotoxicity assay for anticancer-drug screening. J. Natl. Cancer Inst. 82:1107-1112 (1990)) was used to determine the cytotoxic effects of BNP1350, SN-38, topotecan, 9-NH2-CPT, and 9-NO2-CPT on cell growth in vitro. Briefly, after the medium was aspirated from individual plate wells, trichloroacetic acid (100 µL of 10.0% solution) was added to each well, and the plates were incubated at 4°C for at least 1 hour. The plates were washed five-times with water using an automated microplate washer (Model EL 404, Bio-Tek Instruments), SRB solution (100 µL of 0.4 grams SRB dissolved in 100 mL 1.0 percent acetic acid) was added, and plates remained at room temperature for 15 minutes. The plates were then washed five-times using acetic acid (1.0%), air dried, and bound dye was solubilized in Tris base (150 µL, 10 mM). Plates were agitated (gently) for 5 minutes and the absorbance values of the SRB dye-protein adduct at a 570 nm wavelength (A570) were determined using an automated microtiter plate reader equipped with an A570 filter (Model EL800, BioTek Instruments). Table VII. Summary of Cytotoxicity Experiments in A2780/WT and DX5 Cells
Background: The SRB assay estimates cell density from bound dye.

The next experiment concerns A2780/DX5 cells. Description: Sulforhodamine B (SRB) cytotoxicity assay in A2780/DX5 cells. The class given is cell-based. The conditions noted are these: for IC50 Ratio: A2780/DX5 versus A2780/WT. The procedure: as §1, §2, §3, §4, §5
The mark [2] stands for this setting: Homo sapiens, A2780, read-out: A2780/ WT (IC50).
[3] abbreviates: Homo sapiens, A2780, read-out: A2780/ DX5 (IC50).
Setting [4] is: SRB assay, A2780/WT cells, read-out: A2780/ WT (IC50).
Where [5] appears, read: SRB assay, A2780/DX5 cells, read-out: A2780/ DX5 (IC50).

Where two headings read alike, the source gives them in different places.

In the case of `CC[C@@]1(O)C(=O)OCc2c1cc1n(c2=O)Cc2c-1nc1ccccc1c2CC[Si](C)(C)CI` [Compound 4, 11-(4S)-[2-(iodomethyldimethylsilanyl)-ethyl]-4-ethyl-4-hydroxy-1,12-dihydro-4H-2-oxa-6,12a-diaza-dibenzo[b,h]fluorene-3,13-dione], the IC50 in experiment [1] (setting [2]) was found to be 15.7 nM; in the experiment on A2780/DX5 cells (setting [3]) it was 27 nM. In addition, in the experiment on A2780/DX5 cells, the “IC50 Ratio” value worked out at 1.72.
For `CC[C@@]1(O)C(=O)OCc2c1cc1n(c2=O)Cc2c-1nc1ccccc1c2CC[Si](C)(C)CO` [Compound 7, (4S)-4-ethyl-4-hydroxy-11-[2-(hydroxymethyldimethylsilanyl)-ethyl]-1,12-dihydro-4H-2-oxa-6,12a-diaza-dibenzo[b,h]fluorene-3,13-dione], in that order: 9.6 nM, 40.3 nM and 4.2.
In the same order, the values of `CC[C@@]1(O)C(=O)OCc2c1cc1n(c2=O)Cc2c-1nc1ccccc1c2CC[Si](C)(C)CSC[C@H](NC(=O)OC(C)(C)C)C(=O)OC` [Compound 8, (2R, 4S)-2-tert-butoxycarbonylamino-3-({[2-(4-ethyl-4-hydroxy-3,13-dioxo-3,4,12,13-tetrahydro-1H-2-oxa-6,12a-diaza-dibenzo[b,h]fluoren-11-yl)-ethyl]-dimethyl-silanyl}-methylsulfanyl)-propionic acid methyl ester] are 39.8 nM, 110 nM and 2.77.
For `CCC1(O)C(=O)OCc2c1cc1n(c2=O)Cc2c-1nc1ccccc1c2CC[Si](C)(C)CSC(C)=O` (stereo not drawn) [Compound 9, thioacetic acid S-({[2-(4-ethyl-4-hydroxy-3.13-dioxo-3,4,12,13-tetrahydro-1H-2-oxa-6,12a-diaza-dibenzo[b,h]fluoren-11-yl)-ethyl]-dimethylsilanyl} -methyl) ester], the IC50 in experiment [1] (setting [4]) worked out at 64.7 nM; in the experiment with A2780/DX5 cells (setting [5]), 125 nM. In addition, the “IC50 Ratio” value with A2780/DX5 cells is 1.94.
In the same order, the values of `CC[C@@]1(O)C(=O)OCc2c1cc1n(c2=O)Cc2c-1nc1ccccc1c2CC[Si](C)(C)CCCS(=O)(=O)c1ccccc1` [Compound 13, (4S)-11-{2-[(3-benzenesulfonylaronyl)-dimethylsilanyl]-ethyl}-4-ethyl-4-hydroxy-1,12-dihydro-4H-2-oxa-6,12a-diaza-dibenzo[b,h]fluorene-3,13-dione] are 8.5 nM, 53.5 nM and 6.3.
In the same order, the values of `CC[C@@]1(O)C(=O)OCc2c1cc1n(c2=O)Cc2c-1nc1ccccc1c2CC[Si](C)(C)CCCn1ccnc1` [Compound 14, (4S)-4-ethyl-4-hydroxy-11-{2-[(3-imidazol-1-yl-propyl)-dimethyl-silanyl]-ethyl}-1,12-dihydro-4H-2-oxa-6,2a-diaza-dibenzo[b,h]fluorene-3,13-dione] are 11.2 nM, 166 nM and 14.8.
For `CC[C@@]1(O)C(=O)OCc2c1cc1n(c2=O)Cc2c-1nc1ccccc1c2CC[Si](C)(C)CCCn1cncn1` [Compound 15, (4S)-11-{2-[dimethyl-(3-[1,2,4]triazol-1-yl-pronyl)-silanyl]-ethyl}-4-ethyl-4-hydroxy-1,12-dihydro-4H-2-oxa-6,12a-diaza-dibenzo[b,h]fluorene-3,13-dione], in that order: 9 nM, 62.4 nM and 6.9.
On to `CC[C@@]1(O)C(=O)OCc2c1cc1n(c2=O)Cc2c-1nc1ccccc1c2CC[Si](C)(C)CCCN(C)C` [Compound 16, (4S)-11-{2-[(3-dimethylaminopropyl)-dimethysilanyl]-ethyl}-4-ethyl-4-hydroxyl-1,12-dihydro-4H-2-oxa-6,12a-diaza-dibenzo[b,h]fluorene-3,13-dione], for which the IC50 was determined as 23.6 nM in experiment [1] (setting [4]) and 512 nM in the experiment with A2780/DX5 cells (setting [5]). Besides, the “IC50 Ratio” value in the experiment on A2780/DX5 cells stood at 21.7.
With `CC[C@@]1(O)C(=O)OCc2c1cc1n(c2=O)Cc2c-1nc1ccccc1c2CC[Si](C)(C)CCCn1ccccc1=O` [Compound 17, (4S)-11-(2-{dimethyl-[3-(2-oxo-2H-pyridin-1-yl)-propyl]-silanyl}-ethyl)-4-ethyl-4-hydroxy-1,12-dihydro-4H-2-oxa-6,12a-diaza-dibenzo[b,h]fluorene-3,13-dione], the IC50 in experiment [1] (setting [2]) is 16 nM; in the experiment on A2780/DX5 cells (setting [3]) it was 186 nM. In the experiment with A2780/DX5 cells, the “IC50 Ratio” value is recorded as 11.6.
For `CC[C@@]1(O)C(=O)OCc2c1cc1n(c2=O)Cc2c-1nc1ccccc1c2CC[Si](C)(C)CCCP(=O)(OC)OC` [Compound 18, (4S)-(3-{[2-(4-ethyl-4-hydroxy-3,13-dioxo-3,4,12,13-tetrahydro-1H-2-oxa-6,12a-diaza-dibenzo[b,h]fluoren-11-yl)-ethyl]-dimethylsilanyl}-propyl)-phosphonic acid dimethyl ester], in that order: 58.6 nM, 687 nM and 11.7.
With `CC[C@@]1(O)C(=O)OCc2c1cc1n(c2=O)Cc2c-1nc1ccccc1c2CC[Si](C)(C)CCCNC(=O)C(F)(F)F` [Compound 23, (4S)-N-(3-{[2-(4-ethyl-4-hydroxy-3,13-dioxo-3,4,12,13-tetrahydro-1H-2-oxa-6,12a-diaza-dibenzo[b,h]fluoren-11-yl)-ethyl]-dimethyl-silanyl}-propyl)-2,2,2-trifiuoro-acetamide], the IC50 in experiment [1] (setting [4]) was determined as 16.9 nM; in the experiment on A2780/DX5 cells (setting [5]) it was 55.8 nM. In the experiment on A2780/DX5 cells, the “IC50 Ratio” value was 3.3.
For `CC[C@@]1(O)C(=O)OCc2c1cc1n(c2=O)Cc2c-1nc1ccccc1c2CC[Si](C)(C)CCCNC(=O)Nc1ccccc1` [Compound 25, (4S)-1-(3-{[2-(4-ethyl-4-hydroxy-3,13-dioxo-3,14,12,13-tetrahydro-1H-2-oxa-6,12a-diaza-dibenzo[b,h]fluoren-11-yl)-ethyl]-dimethylsilanyl}-propyl)-3-phenylurea], in that order: 23.4 nM, 152 nM and 6.5.
With `CCN(CC)C(=O)NCCC[Si](C)(C)CCc1c2c(nc3ccccc13)-c1cc3c(c(=O)n1C2)COC(=O)[C@]3(O)CC` [Compound 27, (4S)-1,1-diethyl-3-(3-{[2-(4-ethyl-4-hydroxy-3,13-dioxo-3,4,12,13-tetrahydro-1H-2-oxa-6,12a-diaza-dibenzo[b,h]fluoren-11-yl)-ethyl]-dimethyl-silanyl}-propyl)-urea], the figures for the IC50 (in experiment [1] (setting [2]); in the experiment on A2780/DX5 cells (setting [3])) were 65.2 nM and 470 nM, respectively. Besides, the “IC50 Ratio” value with A2780/DX5 cells stood at 7.21.
Regarding `CC[C@@]1(O)C(=O)OCc2c1cc1n(c2=O)Cc2c-1nc1ccccc1c2CC[Si](C)(C)CCCNC(=O)N(C)C` [Compound 29, (4S)-3-(3-{[2-(4-ethyl-4-hydroxy-3,13-dioxo-3,4,12,13-tetrahydro-1H-2-oxa-6,12a-diaza-dibenzo[b,h]fluoren-11-yl)-ethyl]-dimethylsilanyl}-propyl)-1,1-dimethylurea], the figures for the IC50 (in experiment [1] (setting [2]); with A2780/DX5 cells (setting [3])) were 27.5 nM and 312 nM, respectively. Also, the “IC50 Ratio” value in the experiment on A2780/DX5 cells came to 11.4.
In the same order, the values of `CC[C@@]1(O)C(=O)OCc2c1cc1n(c2=O)Cc2c-1nc1ccccc1c2CC[Si](C)(C)Cn1ccccc1=O` [Compound 31, (4S)-11-{2-[dimethyl-(2-oxo-2H-pyridin-1-ylmethyl)-silanyl]-ethyl}-4-ethyl-4-hydroxy-1,12-dihydro-4H-2-oxa-6,12a-diaza-dibenzo[b,h]fluorene-3,13-dione] are 12.1 nM, 98.5 nM and 8.1.
